Measured values taken from patent publication US20020137929A1, “1 - (3-heterocyclylphenyl) isothiourea, -isourea, -guanidine and -amidine herbicidal agents” (Intellectual Property Department, BASF Aktiengesellschaft, priority 1998, published 2002).

Tests used:
SETVI (Foxtail, Green) [1] = assay: Preemergence herbicidal evaluation; format: in vivo, Setaria viridis; settings: rated 4-5 weeks after treatment; for SETVI rating: preemergence, 0-9 scale
Outline: (§1)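 Test compound, dissolved in aqueous acetone, was sprayed over planted soil cups at an equivalent of about 0.0156 to 0.500 kg/ha; seeds had been mixed with potting soil. Greenhouse growth followed, with visual 0-9 scoring of injury at four to five weeks.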

[2] = system: ECHORC (Watergrass (Calif.)); assay: Preemergence weed control under flooded paddy conditions; format: in vivo, Echinochloa oryzoides; settings: rated 3-4 weeks after treatment
Outline: (§2)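 First, seeds or propagules go into the top 0.5 cm of silt loam; next, water is held 1.5 to 3 cm over the soil; then compound (50/50 acetone/water) is pipetted into it at about 0.0313 to 0.500 kg/ha; finally plants are rated visually 0-9 after three to four weeks.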

SETVI (Foxtail, Green) [3] = assay: Postemergence herbicidal evaluation; format: in vivo, Setaria viridis; settings: postemergence
Outline: (§3)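 Seedlings grown about two weeks were sprayed at 40 psi with compound dispersed in 50/50 acetone/water plus 0.5% TWEEN 20, at about 0.0156 to 0.500 kg/ha. Plants were kept in the greenhouse and scored 4–5 weeks later on a 0–9 visual scale against untreated controls.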

MOOVA (Monochoria) = assay: Preemergence weed control under flooded paddy conditions; format: in vivo, Monochoria vaginalis; settings: rated 3-4 weeks after treatment
Outline: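 Herbicidal effect is scored visually on a 0-9 scale against an untreated control, three to four weeks after compounds are pipetted into the flood water (1.5 to 3 cm deep) over seeds planted in silt loam at 0.5 cm depth. Rates: about 0.0313 to 0.500 kg/ha.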

ABUTH (Velvetleaf) = assay: Preemergence herbicidal evaluation; format: in vivo, Abutilon theophrasti; settings: rated 4-5 weeks after treatment; for ABUTH rating: preemergence, 0-9 scale
Outline: as §1

ECHCG (Barnyardgrass) = assay: Preemergence herbicidal evaluation; format: in vivo, Echinochloa crus-galli; settings: rated 4-5 weeks after treatment; for ECHCG rating: preemergence, 0-9 scale
Outline: as §1

[4] = system: SAGPY (Arrowhead (Pygmaea)); assay: Postemergence weed control under flooded paddy conditions; format: in vivo, Sagittaria pygmaea; settings: postemergence weeds, rated 3 to 4 weeks after treatment
Outline: (§4)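 Herbicidal effect is judged by eye on a 0–9 scale versus control, 3–4 weeks after dosing. Dosing is into flood water kept 1.5–3 cm over the soil, at about 0.0313–0.500 kg/ha in aqueous/acetone 50/50 v/v, on 3–5 cm weeds and 1.5–2.5-leaf rice seedlings.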

[5] = system: TRZAWR (Wheat, Winter, cv Riband); assay: Postemergence herbicidal evaluation; format: in vivo, Triticum aestivum; settings: postemergence
Outline: as §3

[6] = system: IPOHE (Morningglory, Ivyleaf); assay: Preemergence herbicidal evaluation; format: in vivo, Ipomoea hederacea; settings: rated 4-5 weeks after treatment; for IPOHE rating: preemergence, 0-9 scale
Outline: as §1

ZEAMX (Corn, Field) = assay: Preemergence herbicidal evaluation; format: in vivo, Zea mays; settings: rated 4-5 weeks after treatment; for ZEAMX rating: preemergence, 0-9 scale
Outline: as §1

[7] = system: ECHORC (Watergrass (Calif.)); assay: Postemergence weed control under flooded paddy conditions; format: in vivo, Echinochloa oryzoides; settings: postemergence weeds, rated 3 to 4 weeks after treatment
Outline: as §4

GALAP (Galium) = assay: Postemergence herbicidal evaluation; format: in vivo, Galium aparine; settings: postemergence
Outline: as §3

CYPIR (Rice Flatsedge) = assay: Preemergence weed control under flooded paddy conditions; format: in vivo, Cyperus iria; settings: rated 3-4 weeks after treatment
Outline: as §2

[8] = system: IPOHE (Morningglory, Ivyleaf); assay: Postemergence herbicidal evaluation; format: in vivo, Ipomoea hederacea; settings: postemergence
Outline: as §3

CCOC(=O)CN1C(=O)C(CC(=O)NOC)SC1=Nc1cc(-n2c(=O)cc(C(F)(F)F)n(C)c2=O)c(F)cc1Cl (stereo not drawn) [Compound 83, Ethyl 2-{{2-chloro-5-[3,6-dihydro-3-methyl-2,6-dioxo-4-(trifluoromethyl)-1(2H)-pyrimidinyl]-4-fluorophenyl}imino}-5-[(methoxycarbamoyl)methyl]-4-oxo-3-thiazolidineacetate]
0.0: SETVI rating (SETVI (Foxtail, Green) [1]; 0.0156 kg/ha) | SETVI rating (SETVI (Foxtail, Green) [1]; 0.0313 kg/ha) | SETVI rating (SETVI (Foxtail, Green) [1]; 0.0625 kg/ha) | SETVI herbicidal rating (SETVI (Foxtail, Green) [3]; rate 0.0156 kg/ha) | ECHCG rating (ECHCG (Barnyardgrass); 0.0156 kg/ha) | ECHCG rating (ECHCG (Barnyardgrass); 0.0313 kg/ha) | ECHCG rating (ECHCG (Barnyardgrass); 0.0625 kg/ha) | ECHCG rating (ECHCG (Barnyardgrass); 0.1250 kg/ha) | ECHCG rating (ECHCG (Barnyardgrass); 0.2500 kg/ha) | IPOHE rating ([6]; 0.0156 kg/ha) | IPOHE rating ([6]; 0.0313 kg/ha) | IPOHE rating ([6]; 0.0625 kg/ha) | ZEAMX rating (ZEAMX (Corn, Field); 0.0156 kg/ha) | ZEAMX rating (ZEAMX (Corn, Field); 0.0313 kg/ha) | ZEAMX rating (ZEAMX (Corn, Field); 0.0625 kg/ha) | ZEAMX rating (ZEAMX (Corn, Field); 0.1250 kg/ha) | ZEAMX rating (ZEAMX (Corn, Field); 0.2500 kg/ha) | GALAP herbicidal rating (GALAP (Galium); rate 0.0156 kg/ha) | GALAP herbicidal rating (GALAP (Galium); rate 0.0313 kg/ha)
8.0: SETVI herbicidal rating (SETVI (Foxtail, Green) [3]; rate 0.0625 kg/ha) | SETVI herbicidal rating (SETVI (Foxtail, Green) [3]; rate 0.1250 kg/ha)
7.0: ECHORC herbicidal effect rating ([2]; 0.1250 kg/ha) | ECHORC herbicidal effect rating ([2]; 0.2500 kg/ha) | Herbicidal rating SAGPY ([4]; Rate 0.0313 kg/ha) | Herbicidal rating SAGPY ([4]; Rate 0.0625 kg/ha) | Herbicidal rating SAGPY ([4]; Rate 0.1250 kg/ha) | ZEAMX rating (ZEAMX (Corn, Field); 0.5000 kg/ha) | Herbicidal rating ECHORC ([7]; Rate 0.1250 kg/ha) | Herbicidal rating ECHORC ([7]; Rate 0.2500 kg/ha) | CYPIR herbicidal effect rating (CYPIR (Rice Flatsedge); 0.2500 kg/ha)
2.0: SETVI rating (SETVI (Foxtail, Green) [1]; 0.1250 kg/ha) | SETVI herbicidal rating (SETVI (Foxtail, Green) [3]; rate 0.0313 kg/ha)
5.0: ECHORC herbicidal effect rating ([2]; 0.0313 kg/ha) | Herbicidal rating ECHORC ([7]; Rate 0.0313 kg/ha) | GALAP herbicidal rating (GALAP (Galium); rate 0.1250 kg/ha) | CYPIR herbicidal effect rating (CYPIR (Rice Flatsedge); 0.0313 kg/ha)
4.5: TRZAWR herbicidal rating ([5]; rate 0.0625 kg/ha)
4.0: ABUTH rating (ABUTH (Velvetleaf); 0.0156 kg/ha) | ECHCG rating (ECHCG (Barnyardgrass); 0.5000 kg/ha) | TRZAWR herbicidal rating ([5]; rate 0.0313 kg/ha)
6.0: ECHORC herbicidal effect rating ([2]; 0.0625 kg/ha) | ABUTH rating (ABUTH (Velvetleaf); 0.0313 kg/ha) | Herbicidal rating ECHORC ([7]; Rate 0.0625 kg/ha) | CYPIR herbicidal effect rating (CYPIR (Rice Flatsedge); 0.0625 kg/ha) | CYPIR herbicidal effect rating (CYPIR (Rice Flatsedge); 0.1250 kg/ha)
3.0: IPOHE rating ([6]; 0.1250 kg/ha) | GALAP herbicidal rating (GALAP (Galium); rate 0.0625 kg/ha)
3.5: TRZAWR herbicidal rating ([5]; rate 0.0156 kg/ha)
6.5: TRZAWR herbicidal rating ([5]; rate 0.1250 kg/ha)
9.0: SETVI rating (SETVI (Foxtail, Green) [1]; 0.2500 kg/ha) | SETVI rating (SETVI (Foxtail, Green) [1]; 0.5000 kg/ha) | MOOVA herbicidal effect rating (MOOVA (Monochoria); 0.0313 kg/ha) | MOOVA herbicidal effect rating (MOOVA (Monochoria); 0.0625 kg/ha) | MOOVA herbicidal effect rating (MOOVA (Monochoria); 0.1250 kg/ha) | MOOVA herbicidal effect rating (MOOVA (Monochoria); 0.2500 kg/ha) | ABUTH rating (ABUTH (Velvetleaf); 0.0625 kg/ha) | ABUTH rating (ABUTH (Velvetleaf); 0.1250 kg/ha) | ABUTH rating (ABUTH (Velvetleaf); 0.2500 kg/ha) | ABUTH rating (ABUTH (Velvetleaf); 0.5000 kg/ha) | Herbicidal rating SAGPY ([4]; Rate 0.2500 kg/ha) | IPOHE rating ([6]; 0.2500 kg/ha) | IPOHE rating ([6]; 0.5000 kg/ha) | IPOHE herbicidal rating ([8]; rate 0.0156 kg/ha) | IPOHE herbicidal rating ([8]; rate 0.0313 kg/ha) | IPOHE herbicidal rating ([8]; rate 0.0625 kg/ha) | IPOHE herbicidal rating ([8]; rate 0.1250 kg/ha)

CC(C)S(=O)(=O)NC(=O)CC1SC(=Nc2cc(-n3c(=O)cc(C(F)(F)F)n(C)c3=O)c(F)cc2Cl)N(C)C1=O (stereo not drawn) [Compound 119, 2-{{2-Chloro-5-[3,6-dihydro-3-methyl-2,6-dioxo-4-(trifluoromethyl)-1(2H)-pyrimidinyl]-4-fluorophenyl}imino}-N-(isopropylsulfonyl)-3-methyl-4-oxo-5-thiazolidineacetamide]
4.5: herbicidal effect rating, CYPIR (CYPIR (Rice Flatsedge); 0.0313 kg/ha)
0.0: Preemergence herbicidal rating SETVI (SETVI (Foxtail, Green) [1]; rate 0.0156 kg/ha) | Preemergence herbicidal rating SETVI (SETVI (Foxtail, Green) [1]; rate 0.0313 kg/ha) | Preemergence herbicidal rating ABUTH (ABUTH (Velvetleaf); rate 0.0156 kg/ha) | Preemergence herbicidal rating ECHCG (ECHCG (Barnyardgrass); rate 0.0156 kg/ha) | Preemergence herbicidal rating ECHCG (ECHCG (Barnyardgrass); rate 0.0313 kg/ha) | Preemergence herbicidal rating ECHCG (ECHCG (Barnyardgrass); rate 0.0625 kg/ha) | Herbicidal rating SAGPY ([4]; Rate 0.0313 kg/ha) | Herbicidal rating SAGPY ([4]; Rate 0.0625 kg/ha) | Herbicidal rating SAGPY ([4]; Rate 0.1250 kg/ha) | Herbicidal rating SAGPY ([4]; Rate 0.2500 kg/ha) | Preemergence herbicidal rating IPOHE ([6]; rate 0.0156 kg/ha) | Preemergence herbicidal rating IPOHE ([6]; rate 0.0313 kg/ha) | Preemergence herbicidal rating IPOHE ([6]; rate 0.0625 kg/ha) | Preemergence herbicidal rating ZEAMX (ZEAMX (Corn, Field); rate 0.0156 kg/ha) | Preemergence herbicidal rating ZEAMX (ZEAMX (Corn, Field); rate 0.0313 kg/ha) | Preemergence herbicidal rating ZEAMX (ZEAMX (Corn, Field); rate 0.0625 kg/ha) | Preemergence herbicidal rating ZEAMX (ZEAMX (Corn, Field); rate 0.1250 kg/ha) | Herbicidal rating ECHORC ([7]; Rate 0.0313 kg/ha)
4.0: Preemergence herbicidal rating ABUTH (ABUTH (Velvetleaf); rate 0.0625 kg/ha) | Herbicidal rating ECHORC ([7]; Rate 0.1250 kg/ha) | Herbicidal rating ECHORC ([7]; Rate 0.2500 kg/ha)
8.0: herbicidal effect rating, ECHORC ([2]; 0.0313 kg/ha) | herbicidal effect rating, MOOVA (MOOVA (Monochoria); 0.0625 kg/ha) | herbicidal effect rating, CYPIR (CYPIR (Rice Flatsedge); 0.2500 kg/ha)
2.5: Herbicidal rating TRZAWR ([5]; rate 0.0156 kg/ha)
7.5: herbicidal effect rating, MOOVA (MOOVA (Monochoria); 0.0313 kg/ha)
3.0: Herbicidal rating SETVI (SETVI (Foxtail, Green) [3]; rate 0.0156 kg/ha) | Preemergence herbicidal rating ABUTH (ABUTH (Velvetleaf); rate 0.0313 kg/ha) | Herbicidal rating GALAP (GALAP (Galium); rate 0.0625 kg/ha)
3.5: Herbicidal rating TRZAWR ([5]; rate 0.0313 kg/ha) | Herbicidal rating TRZAWR ([5]; rate 0.0625 kg/ha)
1.0: Preemergence herbicidal rating ZEAMX (ZEAMX (Corn, Field); rate 0.2500 kg/ha) | Herbicidal rating GALAP (GALAP (Galium); rate 0.0156 kg/ha) | Herbicidal rating GALAP (GALAP (Galium); rate 0.0313 kg/ha)
7.0: Preemergence herbicidal rating SETVI (SETVI (Foxtail, Green) [1]; rate 0.1250 kg/ha) | Preemergence herbicidal rating SETVI (SETVI (Foxtail, Green) [1]; rate 0.2500 kg/ha) | herbicidal effect rating, CYPIR (CYPIR (Rice Flatsedge); 0.0625 kg/ha)
2.0: Preemergence herbicidal rating SETVI (SETVI (Foxtail, Green) [1]; rate 0.0625 kg/ha) | Preemergence herbicidal rating ECHCG (ECHCG (Barnyardgrass); rate 0.1250 kg/ha) | Preemergence herbicidal rating ECHCG (ECHCG (Barnyardgrass); rate 0.2500 kg/ha) | Herbicidal rating ECHORC ([7]; Rate 0.0625 kg/ha)
8.5: herbicidal effect rating, CYPIR (CYPIR (Rice Flatsedge); 0.1250 kg/ha)
9.0: herbicidal effect rating, ECHORC ([2]; 0.0625 kg/ha) | herbicidal effect rating, ECHORC ([2]; 0.1250 kg/ha) | herbicidal effect rating, ECHORC ([2]; 0.2500 kg/ha) | Herbicidal rating SETVI (SETVI (Foxtail, Green) [3]; rate 0.0313 kg/ha) | Herbicidal rating SETVI (SETVI (Foxtail, Green) [3]; rate 0.0625 kg/ha) | herbicidal effect rating, MOOVA (MOOVA (Monochoria); 0.1250 kg/ha) | herbicidal effect rating, MOOVA (MOOVA (Monochoria); 0.2500 kg/ha) | Preemergence herbicidal rating ABUTH (ABUTH (Velvetleaf); rate 0.1250 kg/ha) | Preemergence herbicidal rating ABUTH (ABUTH (Velvetleaf); rate 0.2500 kg/ha) | Preemergence herbicidal rating IPOHE ([6]; rate 0.1250 kg/ha) | Preemergence herbicidal rating IPOHE ([6]; rate 0.2500 kg/ha) | Herbicidal rating IPOHE ([8]; rate 0.0156 kg/ha) | Herbicidal rating IPOHE ([8]; rate 0.0313 kg/ha) | Herbicidal rating IPOHE ([8]; rate 0.0625 kg/ha)
